Active and inactive are the calls of the source. No cut-off for these calls is given here. A value given as a limit tells only on which side of the number the result lay.

Here are results for 18 compounds from ChEMBL document CHEMBL3621161, “Conformationally restrained carbamoylcholine homologues. Synthesis, pharmacology at neuronal nicotinic acetylcholine receptors and biostructural considerations” (Eur J Med Chem, 2015).

Assay [1] deals with T1, Neuronal acetylcholine receptor; alpha3/beta4 (Rattus norvegicus, UniProt P04757+P12392). Kind of assay: Displacement of [3H]epibatidine from rat neuronal acetylcholine receptor subunit alpha3beta4 expressed in HEK293 cell membranes incubated for 4 hrs by scintillation counting method. The conditions noted are these: for pKi: hek293. For orientation: In a radioligand displacement assay an active substance lowers the binding of a labelled ligand.
T1 sequence (P04757 whole entry): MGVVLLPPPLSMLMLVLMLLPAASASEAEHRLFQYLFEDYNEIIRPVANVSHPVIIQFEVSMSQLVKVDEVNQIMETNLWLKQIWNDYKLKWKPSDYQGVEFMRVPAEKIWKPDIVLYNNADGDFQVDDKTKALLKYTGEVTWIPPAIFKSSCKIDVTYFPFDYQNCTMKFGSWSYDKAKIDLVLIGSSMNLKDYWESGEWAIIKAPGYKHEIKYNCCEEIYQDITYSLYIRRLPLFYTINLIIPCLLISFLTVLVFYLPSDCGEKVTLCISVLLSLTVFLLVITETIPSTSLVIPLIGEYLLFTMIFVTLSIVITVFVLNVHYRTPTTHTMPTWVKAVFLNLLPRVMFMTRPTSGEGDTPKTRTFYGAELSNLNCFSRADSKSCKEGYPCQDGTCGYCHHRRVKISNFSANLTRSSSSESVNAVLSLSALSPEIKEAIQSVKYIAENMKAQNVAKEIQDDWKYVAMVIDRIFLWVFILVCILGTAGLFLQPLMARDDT
T1 sequence (P12392 whole entry): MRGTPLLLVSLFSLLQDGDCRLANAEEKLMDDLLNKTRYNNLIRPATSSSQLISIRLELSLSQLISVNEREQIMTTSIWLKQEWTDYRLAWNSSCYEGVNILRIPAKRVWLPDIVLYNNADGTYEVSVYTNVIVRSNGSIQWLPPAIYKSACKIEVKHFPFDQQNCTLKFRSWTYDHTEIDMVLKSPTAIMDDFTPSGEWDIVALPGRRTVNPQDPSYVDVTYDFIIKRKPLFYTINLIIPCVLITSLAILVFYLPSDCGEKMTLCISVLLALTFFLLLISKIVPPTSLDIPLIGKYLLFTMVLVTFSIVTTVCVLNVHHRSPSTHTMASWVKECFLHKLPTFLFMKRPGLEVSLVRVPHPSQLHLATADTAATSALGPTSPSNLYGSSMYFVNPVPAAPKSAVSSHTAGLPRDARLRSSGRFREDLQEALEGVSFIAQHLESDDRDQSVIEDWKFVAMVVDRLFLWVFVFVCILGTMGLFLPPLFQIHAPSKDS

In assay [2] the target is Neuronal acetylcholine receptor; alpha4/beta2 (Rattus norvegicus, UniProt P09483+P12390). Kind of assay: Displacement of [3H]epibatidine from rat neuronal acetylcholine receptor subunit alpha4beta2 expressed in HEK293 cell membranes incubated for 4 hrs by scintillation counting method.
Neuronal acetylcholine receptor; alpha4/beta2, sequence (P09483 whole entry): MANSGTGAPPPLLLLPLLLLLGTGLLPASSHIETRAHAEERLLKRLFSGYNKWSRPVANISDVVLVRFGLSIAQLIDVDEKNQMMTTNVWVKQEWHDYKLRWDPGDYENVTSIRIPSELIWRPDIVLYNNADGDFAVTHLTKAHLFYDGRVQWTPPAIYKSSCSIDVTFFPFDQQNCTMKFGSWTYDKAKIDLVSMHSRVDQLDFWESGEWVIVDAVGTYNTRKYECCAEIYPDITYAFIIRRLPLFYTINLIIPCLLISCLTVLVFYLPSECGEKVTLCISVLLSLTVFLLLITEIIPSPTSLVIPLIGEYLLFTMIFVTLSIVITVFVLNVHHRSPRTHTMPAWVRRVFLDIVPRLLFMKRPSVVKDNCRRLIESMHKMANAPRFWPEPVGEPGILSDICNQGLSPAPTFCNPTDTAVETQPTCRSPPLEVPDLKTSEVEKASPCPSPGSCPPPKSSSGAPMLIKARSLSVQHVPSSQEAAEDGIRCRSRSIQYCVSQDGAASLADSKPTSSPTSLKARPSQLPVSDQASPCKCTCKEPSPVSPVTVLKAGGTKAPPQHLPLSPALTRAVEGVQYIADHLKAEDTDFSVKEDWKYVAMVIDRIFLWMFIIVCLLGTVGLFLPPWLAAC
Neuronal acetylcholine receptor; alpha4/beta2, sequence (P12390 whole entry): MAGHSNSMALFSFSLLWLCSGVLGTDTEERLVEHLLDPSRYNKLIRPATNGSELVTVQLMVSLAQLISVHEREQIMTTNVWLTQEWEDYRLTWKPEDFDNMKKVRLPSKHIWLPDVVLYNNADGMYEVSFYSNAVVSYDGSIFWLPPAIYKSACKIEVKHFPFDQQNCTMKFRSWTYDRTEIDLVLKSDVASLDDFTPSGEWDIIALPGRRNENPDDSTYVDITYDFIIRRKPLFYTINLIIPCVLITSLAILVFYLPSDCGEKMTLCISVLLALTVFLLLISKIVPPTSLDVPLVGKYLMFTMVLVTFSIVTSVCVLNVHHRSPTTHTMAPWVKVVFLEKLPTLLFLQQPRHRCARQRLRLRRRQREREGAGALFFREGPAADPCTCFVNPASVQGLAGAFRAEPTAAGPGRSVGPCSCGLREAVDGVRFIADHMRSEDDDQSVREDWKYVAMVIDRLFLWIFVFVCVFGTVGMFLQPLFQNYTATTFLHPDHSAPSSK
In assay [3] the target is Neuronal acetylcholine receptor subunit alpha-4/beta-2 (Mus musculus) (UniProt Q9ERK7+O70174). Kind of assay: Agonist activity at mouse neuronal acetylcholine receptor subunit alpha4beta2 expressed in HEK293T cells at 300 uM by FMP assay. The class given is cell-based. The conditions noted are these: HEK-293T.
Neuronal acetylcholine receptor subunit alpha-4/beta-2 (Mus musculus), sequence (O70174 31-629 partner limits assumed): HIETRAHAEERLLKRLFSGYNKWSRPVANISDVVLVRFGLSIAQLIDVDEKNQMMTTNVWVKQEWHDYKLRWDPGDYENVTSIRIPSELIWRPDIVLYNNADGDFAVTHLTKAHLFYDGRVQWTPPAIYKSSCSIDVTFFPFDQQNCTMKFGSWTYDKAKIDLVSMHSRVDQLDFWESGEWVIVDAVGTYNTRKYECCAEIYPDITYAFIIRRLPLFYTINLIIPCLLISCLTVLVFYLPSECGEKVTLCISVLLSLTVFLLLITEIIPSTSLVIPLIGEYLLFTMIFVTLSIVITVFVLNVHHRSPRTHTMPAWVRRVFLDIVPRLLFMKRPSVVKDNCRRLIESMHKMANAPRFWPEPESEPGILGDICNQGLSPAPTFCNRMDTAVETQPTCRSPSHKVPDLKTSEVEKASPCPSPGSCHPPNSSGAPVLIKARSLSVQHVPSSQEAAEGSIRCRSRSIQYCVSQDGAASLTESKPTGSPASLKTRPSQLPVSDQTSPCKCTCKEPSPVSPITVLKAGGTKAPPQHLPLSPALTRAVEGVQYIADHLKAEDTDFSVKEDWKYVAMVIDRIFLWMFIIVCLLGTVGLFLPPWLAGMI
Neuronal acetylcholine receptor subunit alpha-4/beta-2 (Mus musculus), sequence (Q9ERK7 26-501 limits assumed): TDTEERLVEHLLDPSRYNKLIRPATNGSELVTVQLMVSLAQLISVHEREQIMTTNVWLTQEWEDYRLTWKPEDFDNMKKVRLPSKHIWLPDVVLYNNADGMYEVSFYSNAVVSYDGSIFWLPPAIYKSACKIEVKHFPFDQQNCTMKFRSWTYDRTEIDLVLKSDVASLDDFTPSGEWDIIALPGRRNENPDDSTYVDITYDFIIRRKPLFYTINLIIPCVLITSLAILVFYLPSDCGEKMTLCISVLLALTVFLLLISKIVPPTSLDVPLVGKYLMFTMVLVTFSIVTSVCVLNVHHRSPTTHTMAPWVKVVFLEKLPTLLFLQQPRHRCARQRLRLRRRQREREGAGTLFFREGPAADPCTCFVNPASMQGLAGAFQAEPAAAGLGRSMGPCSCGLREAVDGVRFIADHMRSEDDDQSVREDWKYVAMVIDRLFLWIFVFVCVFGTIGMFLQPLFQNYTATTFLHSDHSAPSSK
Assay [4] concerns the target Neuronal acetylcholine receptor; alpha4/beta4 (Rattus norvegicus, UniProt P09483+P12392). Kind of assay: Displacement of [3H]epibatidine from rat neuronal acetylcholine receptor subunit alpha4beta4 expressed in HEK293 cell membranes incubated for 4 hrs by scintillation counting method.
The target in assay [5] is T1, Neuronal acetylcholine receptor; alpha3/beta4. Description: Agonist activity at rat neuronal acetylcholine receptor subunit alpha3beta4 expressed in HEK293 cells at 1 mM by FMP assay. The conditions noted are these: for pEC50: hek293. The class given is cell-based.
Assay [6] shares this target. Kind of assay: Agonist activity at rat neuronal acetylcholine receptor subunit alpha3beta4 expressed in HEK293 cells by FMP assay. It counts as cell-based.
Assay [7] addresses Neuronal acetylcholine receptor subunit alpha-4/beta-2 (Mus musculus, UniProt O70174+Q9ERK7). Kind of assay: Agonist activity at mouse neuronal acetylcholine receptor subunit alpha4beta2 expressed in HEK293T cells by FMP assay. It counts as cell-based, HEK-293T.
Assay [8] concerns the target Neuronal acetylcholine receptor; alpha3/beta4 (Rattus norvegicus) (UniProt P04757+P12392). Kind of assay: Agonist activity at rat neuronal acetylcholine receptor subunit alpha3beta4 expressed in HEK293 cells at 300 uM by FMP assay. It counts as cell-based.

Neuronal acetylcholine receptor; alpha4/beta4, sequence (P09483 whole entry): as the sequence (P09483 whole entry) above
Neuronal acetylcholine receptor; alpha4/beta4, sequence (P12392 whole entry): as the sequence (P12392 whole entry) above
Neuronal acetylcholine receptor subunit alpha-4/beta-2, sequence (Q9ERK7 whole entry): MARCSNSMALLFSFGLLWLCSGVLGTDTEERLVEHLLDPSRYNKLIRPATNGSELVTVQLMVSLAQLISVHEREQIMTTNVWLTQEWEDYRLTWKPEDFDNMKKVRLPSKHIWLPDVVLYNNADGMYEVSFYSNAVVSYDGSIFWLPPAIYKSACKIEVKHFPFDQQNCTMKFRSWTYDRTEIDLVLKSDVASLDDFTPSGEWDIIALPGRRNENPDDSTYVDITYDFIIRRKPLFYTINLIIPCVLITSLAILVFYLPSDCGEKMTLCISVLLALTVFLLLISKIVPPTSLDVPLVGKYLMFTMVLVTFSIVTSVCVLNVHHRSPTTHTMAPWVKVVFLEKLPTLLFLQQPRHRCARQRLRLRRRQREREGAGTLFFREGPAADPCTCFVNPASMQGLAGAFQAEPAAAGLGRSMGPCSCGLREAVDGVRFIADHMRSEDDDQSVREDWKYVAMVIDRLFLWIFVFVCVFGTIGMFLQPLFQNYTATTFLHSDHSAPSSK
Neuronal acetylcholine receptor subunit alpha-4/beta-2, sequence (O70174 whole entry): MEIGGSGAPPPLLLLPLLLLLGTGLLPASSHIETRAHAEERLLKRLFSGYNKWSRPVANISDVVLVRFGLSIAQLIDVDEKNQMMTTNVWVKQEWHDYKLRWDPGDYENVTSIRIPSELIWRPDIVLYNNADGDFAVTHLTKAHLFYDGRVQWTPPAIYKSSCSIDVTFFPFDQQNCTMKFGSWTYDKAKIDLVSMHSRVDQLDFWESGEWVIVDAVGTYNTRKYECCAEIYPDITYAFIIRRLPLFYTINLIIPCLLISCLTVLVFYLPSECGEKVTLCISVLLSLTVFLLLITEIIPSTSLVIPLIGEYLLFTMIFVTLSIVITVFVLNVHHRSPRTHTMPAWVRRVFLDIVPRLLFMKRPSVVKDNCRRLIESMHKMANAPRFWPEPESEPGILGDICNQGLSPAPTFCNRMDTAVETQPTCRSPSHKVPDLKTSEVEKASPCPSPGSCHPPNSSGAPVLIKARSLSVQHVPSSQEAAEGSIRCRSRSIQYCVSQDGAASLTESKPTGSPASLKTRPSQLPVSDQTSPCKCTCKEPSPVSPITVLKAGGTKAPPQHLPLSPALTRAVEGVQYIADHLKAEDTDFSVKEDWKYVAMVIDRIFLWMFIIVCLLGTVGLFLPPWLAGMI

For the compound `CCNC(=O)N1CCN(C)CC1`, the Ki is 100 µM in assay [1] (read-out: Ki), 10 µM in assay [2] and 100 µM in assay [4] (read-out: Ki). Also, the result in assay [3] was Active. In assay [5], the EC50 – broadly, the concentration needed to bring the measured effect to its halfway point – is greater than 1000 µM. For the same compound, the pEC50 (usually the EC50 on a negative log10 scale, so that one unit is a factor of ten) in assay [5] was less than 3.

For `CC(CCOC(=O)N(C)C)N(C)C` (configuration not stated), the Ki in assay [1] (read-out: pKi (converted)) and in assay [4] (read-out: pKi (converted)) was 0.02 µM in each case.

Regarding `CN(C)C(=O)N1CCC(N(C)C)C1` (racemic), the values for the EC50 in assay [6] and in assay [7] were 32 µM and 10 µM, respectively. Moreover, the Ki in assay [1] (read-out: Ki) was 6.4 µM; in assay [2], 6.4 µM; in assay [4] (read-out: Ki), 2.3 µM.

As for `CN(C)C(=O)N1CCCNCC1`, the Ki in assay [1] (read-out: Ki) stood at 300 µM; in assay [2], 11 µM; in assay [4] (read-out: Ki) it was 50 µM.

For the compound `CN(C)C(=O)OC[C@H]1C[C@H]1N(C)C` (racemic), the figures for the Ki in assay [1] (read-out: Ki), in assay [2] and in assay [4] (read-out: Ki) were 14 µM, 1.5 µM and 14 µM, respectively. Also, the outcome in assay [3] and in assay [8] was Active.

`CCNC(=O)N1CCC(N(C)C)C1` (racemic) yielded an EC50 in assay [6] of 100 µM. For the same compound, the Ki in assay [1] (read-out: Ki) turned out to be 30 µM; in assay [2], 5.7 µM; in assay [4] (read-out: Ki), 30 µM. In addition, the outcome in assay [3] was Active.

On to `CN(C)C(=O)C1CCNCC1`, for which the negative logarithm of the Ki (pKi) in assay [1], in assay [2] (hek293) and in assay [4] (hek293) was less than 3 throughout. Moreover, the Ki in assay [1] (read-out: Ki), in assay [2] and in assay [4] (read-out: Ki) was greater than 1000 µM each time.

As for `CN(C)C(=O)OC[C@H]1C[C@@H]1N(C)C` (racemic), the Ki in assay [1] (read-out: Ki) came to 1000 µM; in assay [2], 100 µM; in assay [4] (read-out: Ki) it was 1000 µM.

With `CNC(=O)OC[C@H]1C[C@@H]1N(C)C.O=C(O)C(=O)O` (racemic), in assay [1], the pKi (commonly the Ki on a negative log10 scale, so that one unit is a factor of ten) was less than 3. Moreover, the figures for the Ki in assay [1] (read-out: Ki), in assay [2] and in assay [4] (read-out: Ki) were greater than 1000 µM, 300 µM and 1000 µM, respectively.

Consider `CN(C)C(=O)OC[C@H]1C[C@H]1N` (racemic), for which the Ki is 300 µM in assay [1] (read-out: Ki), 13 µM in assay [2] and 100 µM in assay [4] (read-out: Ki).

For the compound `CNC(=S)N1CCC(N(C)C)C1` (racemic), the Ki in assay [1] (read-out: Ki) was determined as 300 µM; in assay [2], 2.3 µM; in assay [4] (read-out: Ki) it was 100 µM. Further, the result in assay [3] was Active. In assay [5], this compound returned an EC50 greater than 1000 µM. The pEC50 in assay [5] is listed as less than 3.

Turning to `CN1CCCN(C(=O)N(C)C)CC1`, the Ki in assay [1] (read-out: Ki) was 300 µM; in assay [2] it was 50 µM; in assay [4] (read-out: Ki), 300 µM.

Turning to `CNC(=S)N1CCN(C)CC1`, in assay [1], the negative-log Ki (pKi) is given as less than 3. For the same compound, the figures for the Ki in assay [1] (read-out: Ki), in assay [2] and in assay [4] (read-out: Ki) were greater than 1000 µM, 19 µM and 500 µM, respectively.

Take `CCNC(=S)N1CCN(C)CC1`: in assay [6], the EC50 came to 100 µM. Besides, the pKi in assay [1] is less than 3. For the same compound, the Ki in assay [1] (read-out: Ki) was greater than 1000 µM; in assay [2], 5.8 µM; in assay [4] (read-out: Ki), 300 µM. Moreover, the outcome in assay [3] was Active.

`CCNC(=S)N1CCC(N(C)C)C1` (racemic) registered a negative-log Ki (pKi) in assay [1] of less than 3. The Ki in assay [1] (read-out: Ki) is greater than 1000 µM; in assay [2], 1.2 µM; in assay [4] (read-out: Ki), 300 µM. Also, the result in assay [3] was Active. This compound also came in with an EC50 in assay [5] greater than 1000 µM. The same compound came in with a negative-log EC50 (pEC50) in assay [5] of less than 3.

On to `CNC(=O)OC[C@H]1C[C@H]1N(C)C` (racemic), for which the values for the Ki in assay [1] (read-out: Ki), in assay [2] and in assay [4] (read-out: Ki) were 50 µM, 2.1 µM and 30 µM, respectively. Besides, the result in assay [3] and in assay [8] was Active.

Take `CC(CCOC(=O)N1CCCC1)N(C)C` (configuration not stated): the EC50 in assay [7] was found to be 7.1 µM.

On to `CN1CCN(C(=O)N(C)C)CC1`, for which the Ki in assay [1] (read-out: Ki) was determined as 50 µM; in assay [2] it was 30 µM; in assay [4] (read-out: Ki) it was 50 µM.
